We go through 22 compounds from patent US20230382924A1, “MODULATORS OF CYSTIC FIBROSIS TRANSMEMBRANE CONDUCTANCE REGULATOR” (VERTEX PHARMACEUTICALS INCORPORATED, priority 2020, published 2023).

Series [1] addresses T1, CFTR (Homo sapiens, UniProt P13569). In words: Membrane Potential Dye, Enteroid Assay B. Type of series: cell-based. The conditions noted are these: for EC50: read-out: Ent. B EC50. In short, it runs like this: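 Enteroid cells loaded 25 min at room temperature with 20 μM methyl oxonol plus 30 μM CaCCinh-A01 and 30 μM Chicago Sky Blue, then switched to chloride-free gluconate buffer. Chloride transport was started by chloride-free stimulation solution, with fluorescence read for 15 min.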

In series [2] the target is T1, CFTR. Briefly: Membrane Potential Dye, Enteroid Assay A. The series is classed as cell-based. The conditions noted are these: for EC50: read-out: Ent. A EC50. A digest of the protocol: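 Signal is reported as % Activity relative to a triple CFTR modulator control (3 μM + 3 μM + 300 nM acute). Read-out: membrane potential fluorescence (20 μM methyl oxonol) monitored for 15 min after chloride-free stimulation. Dye loading took 25 min at room temperature in Bath 1 buffer containing CaCC blockers.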

A further series has as its target T2, F508del (Homo sapiens, UniProt P13569, DEL508-508).
T2 construct: expressed in transfected cells
Briefly: 3T3 assay: membrane potential optical assay for F508del correction in NIH 3T3 cells. The series is classed as cell-based. The conditions noted are these: for Emax: NIH3T3, read-out: 3T3 Max Activity. The source says:
1. Membrane Potential Optical Methods for Assaying F508del Modulation Properties of Compounds
The assay utilizes fluorescent voltage sensing dyes to measure changes in membrane potential using a fluorescent plate reader (e.g., FLIPR III, Molecular Devices, Inc.) as a readout for increase in functional F508del in NIH 3T3 cells. The driving force for the response is the creation of a chloride ion gradient in conjunction with channel activation by a single liquid addition step after the cells have previously been treated with compounds and subsequently loaded with a voltage sensing dye.
2. Identification of Corrector Compounds
To identify correctors of F508del, a single-addition HTS assay format was developed. This HTS assay utilizes fluorescent voltage sensing dyes to measure changes in membrane potential on the FLIPR III as a measurement for increase in gating (conductance) of F508del in F508del NIH 3T3 cells. The F508del NIH 3T3 cell cultures were incubated with the corrector compounds at a range of concentrations for 18-24 hours at 37° C., and subsequently loaded with a redistribution dye. The driving force for the response is a Cl^− ion gradient in conjunction with channel activation with forskolin in a single liquid addition step using a fluorescent plate reader such as FLIPR III.
Bath Solution #1: (in mM) NaCl 160, KCl 4.5, CaCl2) 2, MgCl2 1, HEPES 10, pH 7.4 with NaOH.
Chloride-free bath solution: Chloride salts in Bath Solution #1 (above) are substituted with gluconate salts.
NIH3T3 mouse fibroblasts stably expressing F508del are used for optical measurements of membrane potential. The cells are maintained at 37° C. in 5% CO2 and 90% humidity in Dulbecco's modified Eagle's medium supplemented with 2 mM glutamine, 10% fetal bovine serum, 1×NEAA, b-ME, 1×pen/strep, and 25 mM HEPES in 175 cm^2 culture flasks. For all optical assays, the cells were seeded at ˜20,000/well in 384-well matrigel-coated plates. For the correction assays, the cells are cultured at 37° C. with and without compounds for 16-24 hours.

The mark [3] stands for this setting: NIH 3T3 cells, F508del correction.

The structures appear in SMILES notation. “And” between values parts separate entries of the source, which are not always exact repeats. Equal entries are not always repeated. Where two headings read alike, the source gives them in different places. Where only a bound is given, the exact number is not on record here.

T1 sequence (P13569 with tags, fused parts or gaps DEL508-508): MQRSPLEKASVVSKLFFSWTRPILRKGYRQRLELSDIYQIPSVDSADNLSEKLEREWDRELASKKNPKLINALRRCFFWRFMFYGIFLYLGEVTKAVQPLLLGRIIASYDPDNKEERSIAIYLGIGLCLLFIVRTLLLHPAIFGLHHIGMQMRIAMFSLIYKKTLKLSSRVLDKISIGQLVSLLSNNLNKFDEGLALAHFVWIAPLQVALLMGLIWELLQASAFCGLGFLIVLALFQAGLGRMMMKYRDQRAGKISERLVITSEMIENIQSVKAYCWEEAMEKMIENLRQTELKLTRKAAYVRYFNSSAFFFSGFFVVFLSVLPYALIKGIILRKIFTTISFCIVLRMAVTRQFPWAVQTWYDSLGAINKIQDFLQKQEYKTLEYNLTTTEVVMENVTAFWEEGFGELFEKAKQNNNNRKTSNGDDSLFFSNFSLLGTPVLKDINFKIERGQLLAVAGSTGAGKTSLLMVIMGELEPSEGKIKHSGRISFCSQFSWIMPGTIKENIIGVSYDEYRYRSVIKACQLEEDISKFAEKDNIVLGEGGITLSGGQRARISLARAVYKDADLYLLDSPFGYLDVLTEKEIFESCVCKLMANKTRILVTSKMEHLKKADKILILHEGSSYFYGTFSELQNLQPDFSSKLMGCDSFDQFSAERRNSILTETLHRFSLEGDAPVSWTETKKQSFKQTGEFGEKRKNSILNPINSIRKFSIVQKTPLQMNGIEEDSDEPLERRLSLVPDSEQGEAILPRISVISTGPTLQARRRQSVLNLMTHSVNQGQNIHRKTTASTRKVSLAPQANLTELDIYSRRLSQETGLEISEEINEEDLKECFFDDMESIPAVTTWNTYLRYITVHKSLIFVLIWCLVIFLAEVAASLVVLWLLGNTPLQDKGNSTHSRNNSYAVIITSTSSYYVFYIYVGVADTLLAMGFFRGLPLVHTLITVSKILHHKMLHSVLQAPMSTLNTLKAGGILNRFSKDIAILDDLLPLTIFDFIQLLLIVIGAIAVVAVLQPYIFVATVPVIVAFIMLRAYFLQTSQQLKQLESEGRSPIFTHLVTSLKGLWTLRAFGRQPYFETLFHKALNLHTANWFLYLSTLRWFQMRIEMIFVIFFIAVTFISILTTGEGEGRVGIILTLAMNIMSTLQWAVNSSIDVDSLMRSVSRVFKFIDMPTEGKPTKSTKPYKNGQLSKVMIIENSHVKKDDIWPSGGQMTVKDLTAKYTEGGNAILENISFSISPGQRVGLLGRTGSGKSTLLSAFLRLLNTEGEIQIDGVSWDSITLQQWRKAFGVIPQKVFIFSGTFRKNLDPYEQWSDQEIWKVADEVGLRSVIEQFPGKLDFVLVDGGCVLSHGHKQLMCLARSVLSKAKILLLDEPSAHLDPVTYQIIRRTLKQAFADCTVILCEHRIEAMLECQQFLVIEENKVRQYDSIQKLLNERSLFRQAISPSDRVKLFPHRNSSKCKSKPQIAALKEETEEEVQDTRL
T2 sequence (P13569 with tags, fused parts or gaps DEL508-508): as above

Consider `Cc1cccc(C)c1-c1cc2nc(n1)NS(=O)(=O)C1CCC1C(=O)N[C@H](CC(C)C)CO2` (some centres unmarked), for which the ring closure, yield after HPLC (from Cc1cccc(C)c1-c1cc(OC[C@H](N)CC(C)C)nc(NS(=O)(=O)C2CCC2C(=O)O)n1, amide bond, 12-membered ring, HATU/DIEA, DMF, 42.9 mM, 25.0 °C, 0.083 h, 2 steps) was 4% and 8%.

Regarding `Cc1cccc(C)c1-c1cc2nc(n1)NS(=O)(=O)c1cccc(c1)C(=O)NC1CC(CN(CCC(C)(C)C)C1)O2` (centres unmarked), the ring closure, yield after HPLC by setting is: (from Cc1cccc(C)c1-c1cc(Cl)nc(NS(=O)(=O)c2cccc(C(=O)NC3CC(O)CN(CCC(C)(C)C)C3)c2)n1, snar bond, 14-membered ring, NaH, NMP, 5.8 mM, 70.0 °C, 2.0 h, 2 steps) 2%; (from Cc1cccc(C)c1-c1cc(Cl)nc(NS(=O)(=O)c2cccc(C(=O)NC3CC(O)CN(CCC(C)(C)C)C3)c2)n1, snar bond, 14-membered ring, NaH, NMP, 9.2 mM, 70.0 °C, 2.0 h, 2 steps) 3%.

Turning to `Cc1cccc(C)c1-c1cc2nc(n1)NS(=O)(=O)c1cccc(c1)C(=O)NCC(c1ccc(C3CCC3)cc1)O2` (centres unmarked), the ring closure, yield after HPLC (from Cc1cccc(C)c1-c1cc(OC(CN)c2ccc(C3CCC3)cc2)nc(NS(=O)(=O)c2cccc(C(=O)O)c2)n1, amide bond, 13-membered ring, HATU/DIEA, DMF, 189.0 mM, 25.0 °C, 0.5 h) was 1%.

Consider `Cc1cccc(C)c1-c1cc2nc(n1)NS(=O)(=O)c1cccc(c1)C(=O)NCC(c1ccc([Si](C)(C)C)cc1)O2` (centres unmarked), for which the ring closure, yield after HPLC (from Cc1cccc(C)c1-c1cc(OC(CN)c2ccc([Si](C)(C)C)cc2)nc(NS(=O)(=O)c2cccc(C(=O)O)c2)n1, amide bond, 13-membered ring, HATU/DIEA, DMF, 55.1 mM, 25.0 °C, 0.5 h) came out at 23%.

Take `Cc1cccc(C)c1-c1cc2nc(n1)NS(=O)(=O)c1cccc(c1)C(=O)NC[C@H](CO[Si](c1ccccc1)(c1ccccc1)C(C)(C)C)O2`: where the note is “from Cc1cccc(C)c1-c1cc(O[C@H](CN)CO[Si](c2ccccc2)(c2ccccc2)C(C)(C)C)nc(NS(=O)(=O)c2cccc(C(=O)O)c2)n1, amide bond, 13-membered ring, HATU/DIEA, DMF, 30.8 mM, 25.0 °C, 1.0 h, 2 steps”, the ring closure, yield after HPLC worked out at 98%.

Turning to `Cc1cccc(C)c1-c1cc2nc(n1)NS(=O)(=O)c1cccc(c1)C(=O)N[C@H](CC(C)C)C(c1ccc(C(C)(C)C)cc1)O2` (some centres unmarked), the ring closure, yield after HPLC (from Cc1cccc(C)c1-c1cc(OC(c2ccc(C(C)(C)C)cc2)[C@H](N)CC(C)C)nc(NS(=O)(=O)c2cccc(C(=O)O)c2)n1, amide bond, 13-membered ring, HATU/NaOtBu, DMF/THF, 69.4 mM, 25.0 °C, 2.0 h, 2 steps) is 21% and 15%.

`Cc1cccc(C)c1-c1nc2cc(n1)OC[C@@H](CC(C)C)NC(=O)c1cccc(c1)S(=O)(=O)N2` yielded a ring closure, yield after HPLC (from Cc1cccc(C)c1-c1nc(NS(=O)(=O)c2cccc(C(=O)O)c2)cc(OC[C@H](N)CC(C)C)n1, amide bond, 13-membered ring, HATU/TEA, DMF, 12.2 mM, 25.0 °C, 0.083 h) of 32%.

Consider `Cc1cccc(C)c1-c1cc2nc(n1)NS(=O)(=O)c1cccc(c1)C(=O)NC[C@@H](c1ccc(C(C)(C)C)cc1)O2` (single isomer, unassigned) [Compound 5], for which, on CFTR [1] (Table 8), the “Ent. B Max Activity” value was “+++ (+++ is >60%)” and the EC50 was less than 1000 nM. In addition, at CFTR [2] (Table 8), the “Ent. A Max Activity” value is “+++ (+++ is >60%)” and the EC50 was less than 1000 nM. Further, at F508del (Table 8), the Emax is more than 60% and the EC50 was less than 1000 nM.

In the case of `Cc1cccc(C)c1-c1cc2nc(n1)NS(=O)(=O)c1cccc(c1)C(=O)NC[C@H](c1ccccc1)O2` [Compound 26, (10S)-6-(2,6-Dimethylphenyl)-2,2-dioxo-10-phenyl-9-oxa-2λ^6-thia-3,5,12,19-tetrazatricyclo[12.3.1.14,8]nonadeca-1(18),4(19),5,7,14,16-hexaen-13-one], the ring closure, yield after HPLC (from Cc1cccc(C)c1-c1cc(O[C@H](CN)c2ccccc2)nc(NS(=O)(=O)c2cccc(C(=O)O)c2)n1, amide bond, 13-membered ring, HATU/DIEA, DMF, 25.9 mM, 25.0 °C, 1.0 h, 2 steps) turned out to be 38%.

As for `Cc1cccc(C)c1-c1cc2nc(n1)NS(=O)(=O)c1cccc(c1)C(=O)NC[C@H](C)O2` [Compound 27, (10S)-6-(2,6-Dimethylphenyl)-10-methyl-2,2-dioxo-9-oxa-2λ^6-thia-3,5,12,19-tetrazatricyclo[12.3.1.14,8]nonadeca-1(18),4(19),5,7,14,16-hexaen-13-one], the ring closure, yield after HPLC (from Cc1cccc(C)c1-c1cc(O[C@@H](C)CN)nc(NS(=O)(=O)c2cccc(C(=O)O)c2)n1, amide bond, 13-membered ring, HATU/DIEA, DMF, 25.0 °C, 1.0 h, 2 steps) amounted to 55%.

Consider `Cc1cccc(C)c1-c1cc2nc(n1)NS(=O)(=O)c1cccc(c1)C(=O)N[C@H](CC(C)(C)C)CO2` [Compound 97, (11R)-6-(2,6-dimethylphenyl)-11-(2,2-dimethylpropyl)-2,2-dioxo-9-oxa-2λ^6-thia-3,5,12,19-tetrazatricyclo[12.3.1.14,8]nonadeca-1(18),4(19),5,7,14,16-hexaen-13-one], for which the EC50 on CFTR [1] (Enteroid Assay B), on CFTR [2] (Enteroid Assay A) and at F508del (setting [3]) was less than 1000 nM in each case. On CFTR [2] (Enteroid Assay A), the “Ent. A Max Activity” value is listed as “+++ (+++ is >600%)”.

Take `Cc1cccc(C)c1-c1cc2nc(n1)NS(=O)(=O)c1ccnc(c1)C(=O)N[C@H](CC1CCCCC1)CO2` [Compound 142]: at CFTR [1] (Table 8), the “Ent. B Max Activity” value is recorded as “++ (++ is 306%)” and the EC50 is less than 1000 nM. In addition, at CFTR [2] (Table 8), the “Ent. A Max Activity” value is on record as “+++ (+++ is >60%)” and the EC50 lay within 1000 to 3000 nM. For the same compound, on F508del (Table 8), the Emax was more than 60% and the 50% effective concentration (EC50) is less than 1000 nM.

Regarding `COc1cccc(C)c1-c1cc2nc(n1)NS(=O)(=O)c1cccc(c1)C(=O)N[C@H](CC(C)C)CO2` [Compound 318], on CFTR [2] (Enteroid Assay A), the “Ent. A Max Activity” value was “+++ (+++ is >600%)” and the half-maximal effective concentration (EC50) lay in the range of 1000 to 3000 nM. Besides, at F508del (setting [3]), the EC50 was less than 1000 nM.

Regarding `Cc1ccccc1-c1cc2nc(n1)NS(=O)(=O)c1cccc(c1)C(=O)N[C@H](CC(C)C)CO2` [Compound 329], on CFTR [2] (Enteroid Assay A), the “Ent. A Max Activity” value is recorded as “+++ (+++ is >600%)” and the EC50 was less than 1000 nM. The compound further had an EC50 at F508del (setting [3]) of less than 1000 nM.

`Cc1cccc(C)c1-c1cc2nc(n1)NS(=O)(=O)c1cccc(c1)C(=O)NC[C@@H](Cc1ccccc1)O2` [Compound 347]: the “Ent. A Max Activity” value at CFTR [2] (Enteroid Assay A) is “+++ (+++ is >600%)”. The EC50 on CFTR [2] (Enteroid Assay A) and on F508del (setting [3]) was less than 1000 nM throughout.

As to `Cc1cccc(C)c1-c1cc2nc(n1)NS(=O)(=O)c1cccc(c1)C(=O)N[C@H](Cc1ccccc1)CO2` [Compound 350], on CFTR [2] (Enteroid Assay A), the “Ent. A Max Activity” value is given as “+++ (+++ is >600%)” and the EC50 was less than 1000 nM. The EC50 at F508del (setting [3]) is less than 1000 nM.

As to `Cc1cccc(C)c1-c1cc2nc(n1)NS(=O)(=O)c1cccc(c1)C(=O)N[C@H](C(C)(C)C)CO2` [Compound 361], on CFTR [2] (Table 8), the “Ent. A Max Activity” value is on record as “+++ (+++ is >60%)” and the EC50 was less than 1000 nM. On F508del (Table 8), the Emax was more than 60% and the EC50 was less than 1000 nM.

As for `Cc1cccc(C)c1-c1cc2nc(n1)NS(=O)(=O)c1cccc(c1)C(=O)N[C@H](CC1CCCCC1)CO2` [Compound 365], the EC50 on CFTR [1] (Enteroid Assay B), on CFTR [2] (Enteroid Assay A) and on F508del (setting [3]) was less than 1000 nM throughout. For the same compound, the “Ent. A Max Activity” value on CFTR [2] (Enteroid Assay A) is reported as “+++ (+++ is >600%)”.

As to `Cc1cccc(C)c1-c1cc2nc(n1)NS(=O)(=O)c1cccc(n1)C(=O)N[C@H](CC1CCCCC1)CO2` [Compound 411], on CFTR [2] (Table 8), the “Ent. A Max Activity” value is reported as “+++ (+++ is >60%)” and the EC50 is less than 1000 nM. In addition, at F508del (Table 8), the Emax was more than 60% and the EC50 is less than 1000 nM.

Regarding `Cc1cccc(C)c1-c1cc2nc(n1)NS(=O)(=O)c1cncc(c1)C(=O)N[C@H](CC1CCCCC1)CO2` [Compound 412], on CFTR [2] (Table 8), the “Ent. A Max Activity” value is listed as “+++ (+++ is >60%)” and the EC50 is less than 1000 nM. On F508del (Table 8), the Emax was more than 60% and the EC50 was less than 1000 nM.

As to `Cc1cccc(C)c1-c1cc2nc(n1)NS(=O)(=O)c1cccc(c1)C(=O)N[C@H](C1CCCCC1)CO2` [Compound 493], on CFTR [2] (Table 8), the “Ent. A Max Activity” value was “+++ (+++ is >60%)” and the EC50 was less than 1000 nM. Further, on F508del (Table 8), the Emax was more than 60% and the EC50 is less than 1000 nM.

In the case of `Cc1cccc(C)c1-c1cc2nc(n1)NS(=O)(=O)c1cccc(c1)C(=O)N[C@H](C(CC(C)C)CC(C)C)CO2` [Compound 494], on CFTR [2] (Table 8), the “Ent. A Max Activity” value is given as “+++ (+++ is >60%)” and the EC50 was less than 1000 nM. Besides, on F508del (Table 8), the Emax is more than 60% and the EC50 is less than 1000 nM.
